Patent publication US9550811B2, “Peptide scaffold design” (BIONOR IMMUNO AS, priority 2010, dated 2017)
Like-named read-outs stand apart in the source and are kept apart here. Where no end group is shown, it is not given here. [ ]: non-standard residue; d: D form. Nle = CCCC[C@H](N)C(=O)O

Tests used:
DC-cells = assay: Cell penetration assay: staining for biotinylated peptides, dendritic cells gated as CD11c+; type: cell-based, human; conditions: low concentration of peptides (208 uM)
Method: A set of peptides were biotinylated on N-terminal, and different combinations of aminoacids, with respect to length and type, were added to the sequence box X^1, X^3 and X^4 in the peptides as illustrated by the diagram below. The peptides were tested on cells grown from one individual blood donor.
96-well U-bottom polystyrene plates (NUNC, cat no: 163320) were used for staining of human PBMCs. Briefly, 8 ul of N- or C-terminally biotinylated peptides according to table 1 or table 2 (i.e. 5 mM, 2.5 mM & 1.25 mM tested for each peptide) were incubated at 37° C. for 2 h with 40 ul of PBMC (12.5×10^6 cells/ml) from blood donors. Cells were then washed 3× with 150 ul of Cellwash (BD, cat no: 349524), followed by resuspension of each cell pellet with 100 ul of Trypsin-EDTA (Sigma, cat no: T4424), then incubated at 37° C. for 5 min. Trypsinated cells were then washed 3× with 150 ul of Cellwash (BD, cat no: 349524), followed by resuspension with BD Cytofix/Cytoperm™ plus (BD, cat no: 554715), then incubated at 4° C. for 20 min according to manufacturer. Cells were then washed 2× with 150 ul PermWash (BD, cat no: 554715). Cells were then stained with Streptavidin-APC (BD, cat no: 554067) & Anti-hCD11c (eBioscience, cat no: 12-0116) according to manufacturer at 4° C. for 30 min aiming to visualize biotinylated peptides & dendritic cells, respectively. Cells were then washed 3× with 150 ul PermWash, followed by resuspension in staining buffer (BD, cat no: 554656) before flow cytometry. Dendritic cells were gated as CD11c+ events outside lymphocyte region (i.e. higher FSC & SSC signals than lymphocytes). 200 000 total cells were acquired on a FACSCanto II flow cytometer with HTS loader, and histograms for both total cells & dendritic cells with respect to peptide-fluorescence (i.e. GeoMean) were prepared.
As shown in table 4 the peptides according to the invention had the ability to allocate through the cell membrane.

human PBMCs = type: cell-based; conditions: for Geomean value (peptide-fluorescence): With Cytofix/Cytoperm and trypsination, BC20

Row | Sequence | Results on DC-cells (geomean peptide-fluorescence) (DC-cells; BC 16) | Results on DC-cells (geomean peptide-fluorescence) (DC-cells; BC43) | further results
1 | RRRGYIPLVGAPLGBRVARALAHGVRV [SP8_c] | 9159 | 23763 | 
2 | BRIAYERMCNILLBRGKFQTAAQRA [190b] | 12391 | 20444 | 
3 | RRVTGNIPGSTYSGBRGITFSIYLIVS [SP25] | 11552 |  | 
4 | RRGGGQIVGGVYLLPRRGPRLGVRATR [310-11-n-sc] | 25236 |  | 
5 | RGYIPLVGAPLGRRRVARALAHGVRV [SP10] | 8627 | 9216 | Geomean value (peptide-fluorescence) (human PBMCs; concentration 104 μM): 3709; Geomean value (peptide-fluorescence) (human PBMCs; concentration 208 μM): 7684; Geomean value (peptide-fluorescence) (human PBMCs; concentration 417 μM): 18607; Geomean value (peptide-fluorescence) (human PBMCs; concentration 833 μM): 43389
6 | RFIIPXFTALSGGRRALLYGATPYAIG (RFIIP[Nle]FTALSGGRRALLYGATPYAIG) [V10] | 45430 |  | 
7 | RGYIPLVGAPLGRRRVARALAHGVRV [SP10_c] (RGYIPLVGAPLGRRRVARALAHGVRV-NH2) | 6904 |  | 
8 | WWGYIPLVGAPLGRVARALAHGVRV [SP23] | 17084 | 12801 | 
9 | BRTAYERZCNILBRGRFQTVVQBA [compound 17] |  |  | Intracellular staining, median (human PBMCs): 20.77
10 | RGYIPLVGAPLGKKKVARALAHGVRV [SP9] | 8356 | 10084 | Geomean value (peptide-fluorescence) (human PBMCs; concentration 104 μM): 1268; Geomean value (peptide-fluorescence) (human PBMCs; concentration 208 μM): 2945; Geomean value (peptide-fluorescence) (human PBMCs; concentration 417 μM): 6060; Geomean value (peptide-fluorescence) (human PBMCs; concentration 833 μM): 11344
11 | GYIPLVGAPLGGVARALAHGVRV [51n] | 5551 | 7721 | 
12 | WWGYIPLVGAPLGRRRVARALAHGVRV [SP22] | 61597 | 18624 | 
13 | IAYERMCNILKGKFQTAAQRA [190n] | 18616 | 23383 | 
14 | RRGYIPLVGAPLGLRRVARALAHGVRV [SP17_c] | 11830 |  | 
15 | GGGQIVGGVYLLPRRGPRLGVRATR [310-11n] | 5436 |  | 
16 | WWGYIPLVGAPLGRRVARALAHGVRV [SP21] (WWGYIPLVGAPLGRRVARALAHGVRV-NH2) | 26525 | 4294 | 
17 | RGYIPLVGAPLGRRRVARALAHGVRV [SP4_c] | 20673 | 30786 | 
18 | RNLVPMVATVBRRNLVPMVATVB [compound 18] |  |  | Intracellular staining, median (human PBMCs): 3.86
19 | WGYIPLVGAPLGRRVARALAHGVRV [SP12_c] (WGYIPLVGAPLGRRVARALAHGVRV-NH2) | 37100 | 43386 | 
20 | BRLIFLARSALIVRGSVAHKS [100-12] | 24792 | 45622 | 
21 | RGYIPLVGAPLGRRVARALAHGVRV [SP3] | 9480 | 10573 | Geomean value (peptide-fluorescence) (human PBMCs; concentration 104 μM): 4308; Geomean value (peptide-fluorescence) (human PBMCs; concentration 208 μM): 10788; Geomean value (peptide-fluorescence) (human PBMCs; concentration 417 μM): 25905; Geomean value (peptide-fluorescence) (human PBMCs; concentration 833 μM): 40456
22 | WWGGGQIVGGVYLLPRRGPRLGVRAT [SP11b_1] | 64047 |  | 
23 | RRGYIPLVGAPLGRRRVARALAHGVRV [SP6] | 10233 | 14468 | Geomean value (peptide-fluorescence) (human PBMCs; concentration 104 μM): 1850; Geomean value (peptide-fluorescence) (human PBMCs; concentration 208 μM): 6514; Geomean value (peptide-fluorescence) (human PBMCs; concentration 417 μM): 22195; Geomean value (peptide-fluorescence) (human PBMCs; concentration 833 μM): 32577
24 | BRGLEPLVIAGILARRGSLVGLLHIVL [BI100260] | 47846 |  | 
25 | EEGYIPLVGAPLGRRVARALAHGVRV [SP16] | 5730 | 3656 | Geomean value (peptide-fluorescence) (human PBMCs; concentration 104 μM): 505; Geomean value (peptide-fluorescence) (human PBMCs; concentration 208 μM): 1260; Geomean value (peptide-fluorescence) (human PBMCs; concentration 417 μM): 2240; Geomean value (peptide-fluorescence) (human PBMCs; concentration 833 μM): 4558
26 | BRGSDPLVVAASIVRRASIVGILHLIL [BI100260b] | 37702 |  | 
27 | RGYIPLVGAPLGRRVARALAHGVRV [SP24] (RGYIPLVGAPLGRRVARALAHGVRV-NH2) | 18181 | 63639 | 

Row | Sequence | Results on DC-cells (geomean peptide-fluorescence) (DC-cells; BC 16) | Results on DC-cells (geomean peptide-fluorescence) (DC-cells; BC43) | further results
28 | RRNYVTGNIPGBRGITFSIFLIVS [SP61_2] | 128330 | 150491 | 
29 | GYIPLVGAPLGGVARALAHGVRV [SP1_C] (GYIPLVGAPLGGVARALAHGVRV-NH2) | 9234 |  | 
30 | PEVIPMFSALSEGATPQDLNTMLN [N10] | 4597 |  | 
31 | WWSRNLGKVIDTLTCRRLMGYIPLVGA [SP42b_1] | 17628 |  | 
32 | BRLIFLARSALILBGRSALILRGSVAHK [120b] | 44185 |  | 
33 | KKGYIPLVGAPLGKKVARALAHGVRV [SP11_c] (KKGYIPLVGAPLGKKVARALAHGVRV-NH2) | 5371 | 7878 | 
34 | SAYERMCNILKGKFQTAAQRAMM [18b] | 29740 | 33597 | 
35 | BRRLFFKTITRLFBHGLRRLLSTEGVPNSZ [BI10026] | 65196 | 43536 | 
36 | RRGYIPLVGAPLGRRRVARALAHGVRV [SP6_c] (RRGYIPLVGAPLGRRRVARALAHGVRV-NH2) | 17964 | 38487 | 
37 | BRTAYERZCNILBRGRFQTVVQBA [compound 190] | 12906 |  | 
38 | WWIRNLGRVIETLTRRLZGYIPLIGA [SP42_1] | 73973 |  | 
39 | RRGYIPLVGAPLGBGRVARALAHGVRV [SP2_c] | 323 | 13341 | 
40 | LFFKCIYRLFKHGLKRGPSTEGVPESM [BI10024b] | 26892 | 13002 | 
41 | RNLVPMVATVRRNLVPMVATVB [BI-050sc1] | 6056 | 6160 | 
42 | WWNYVTGNIPGRRGITFSIFLIVS [SP61_4] | 12829 |  | 
43 | YGRKKRRQRRR [compound 4, Positive control (tat), reference compound] |  |  | Intracellular staining, median (human PBMCs): 4.43
44 | BRGYIPLVGAPLGRRVARALAHGVRV [SP7_c] | 20041 | 11832 | 
45 | RGYIPLVGAPLGKKKVARALAHGVRV [SP9_c] (RGYIPLVGAPLGKKKVARALAHGVRV-NH2) | 6180 | 7758 | 
46 | RNLVPMVATVBRRNLVPMVATVB [BI-050sc2] | 6019 | 11584 | 
47 | RNIVPZVVTARRNIVPZVVTAB [BI-050sc5] | 13648 | 15549 | 
48 | WWNYVTGNIPGBRGITFSIFLIVS [SP61_3] | 47182 | 36803 | 
49 | KALGPAATLEEMMTACQGVG [N13] | 7982 | 5953 | 
50 | RRGYIPLVGAPLGRRVARALAHGVRV [SP5_c] (RRGYIPLVGAPLGRRVARALAHGVRV-NH2) | 16908 | 24403 | 
51 | RGYIPLVGAPLGRRVARALAHGVRV [SP3_c] (RGYIPLVGAPLGRRVARALAHGVRV-NH2) | 18505 | 26308 | 
52 | WWGYIPLVGAPLGRRVARALAHGVRV [SP13_c] (WWGYIPLVGAPLGRRVARALAHGVRV-NH2) |  | 60307 | 
53 | EDLIFLARSALILRGSVAHKS [100-22b] | 43537 | 28780 | 
54 | WWGYLPAVGAPIRRVIRVIAHGLRL [SP51_1*] | 66582 |  | 
